Data on 14 compounds can be found in patent US11111245B2, “Derivatives of N-cycloalkyl/heterocycloalkyl-4-(imidazo[1,2-a]pyridine)pyrimidin-2-amine as therapeutic agents” (Aucentra Therapeutics Pty Ltd, priority 2017, dated 2021).

The target in test [1] is CDK4/D1 (Homo sapiens, UniProt P11802). As to the kind of experiment: ADP Glo Kinase assay CDK4/D1. The class given is biochemical. The note with it: CDK4D1; for remaining activity at 10 µM: compound at 10 μM, read-out: residual activity (%) at 10 μM CDK4D1. The method in brief: (§1)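 Other CDKs and further kinases were profiled externally by radiometric assay. In-house ADP Glo assays covered CDK4/D1 and CDK6/D3 (RB-CTF substrate, pH 7.5 Tris buffer with MgCl2, DTT, BSA) and CDK9/T1 (RBER-IRStide substrate), 40 min at 37° C.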
CDK4/D1, sequence (P11802 whole entry): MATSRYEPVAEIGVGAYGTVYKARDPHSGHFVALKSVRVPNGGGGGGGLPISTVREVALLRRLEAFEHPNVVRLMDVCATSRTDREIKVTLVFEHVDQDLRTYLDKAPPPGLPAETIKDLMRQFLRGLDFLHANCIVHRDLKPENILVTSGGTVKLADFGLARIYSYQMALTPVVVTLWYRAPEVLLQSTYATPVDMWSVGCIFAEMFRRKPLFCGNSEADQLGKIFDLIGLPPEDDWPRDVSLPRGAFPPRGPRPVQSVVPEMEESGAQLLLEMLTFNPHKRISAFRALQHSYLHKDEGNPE
CDK4/D1, sequence (P24385 whole entry partner): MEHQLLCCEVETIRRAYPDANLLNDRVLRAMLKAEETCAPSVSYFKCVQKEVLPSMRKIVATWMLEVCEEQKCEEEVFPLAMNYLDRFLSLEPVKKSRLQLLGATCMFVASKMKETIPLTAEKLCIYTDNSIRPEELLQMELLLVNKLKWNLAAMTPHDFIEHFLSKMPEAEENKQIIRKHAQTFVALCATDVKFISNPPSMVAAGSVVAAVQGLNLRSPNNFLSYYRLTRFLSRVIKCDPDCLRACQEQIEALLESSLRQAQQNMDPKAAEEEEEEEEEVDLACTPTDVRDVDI
A general note: In ADP-Glo the light output rises with the ADP produced.

Test [2] has as its target CDK9/T1 (Homo sapiens, UniProt P50750). In words: ADP Glo Kinase assay CDK9/T1. Type of test: biochemical. The note with it: CDK9T1; read-out: CDK inhibition, Ki (μM) CDK9T1. The method in brief: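 CDK4/D1 and CDK6/D3 were run in […] Tris pH 7.5, 20 mM MgCl2, 0.4 mM DTT, 0.1 mg/ml BSA with RB-CTF substrate; CDK9/T1 used RBER-IRStide. ATP-started reactions ran 40 min at 37° C, with ADP Glo luminescence read-out. IC50 came from 4-parameter fits; Ki from Km (ATP) and IC50.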

Test [3] concerns leukemia cell lines. As to the kind of experiment: Resazurin cell viability assay on leukemia cell lines (72 h growth inhibition, GI50). Type of test: cell-based. The note with it: Homo sapiens, MV4-11 cells. In short, it runs like this:
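Standard published viability protocols apply here, MTT-based for solid tumour cells and resazurin-based for leukaemia cells, with 50% growth inhibition concentrations derived through non-linear regression.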

The target in test [4] is CDK6/D3 (Homo sapiens, UniProt Q00534). As to the kind of experiment: ADP Glo Kinase assay CDK6/D3. Type of test: biochemical. The note with it: CDK6D3; for remaining activity at 10 µM: compound at 10 μM, read-out: residual activity (%) at 10 μM CDK6D3. In short, it runs like this:
as §1

The target of test [5] is T1, CDKs and other kinases (Homo sapiens, UniProt P50613).
T1 construct: other: CDK7H; residual activity (%) at 10 μM CDK7H; compound at 10 μM
T1 sequence (P50613 whole entry): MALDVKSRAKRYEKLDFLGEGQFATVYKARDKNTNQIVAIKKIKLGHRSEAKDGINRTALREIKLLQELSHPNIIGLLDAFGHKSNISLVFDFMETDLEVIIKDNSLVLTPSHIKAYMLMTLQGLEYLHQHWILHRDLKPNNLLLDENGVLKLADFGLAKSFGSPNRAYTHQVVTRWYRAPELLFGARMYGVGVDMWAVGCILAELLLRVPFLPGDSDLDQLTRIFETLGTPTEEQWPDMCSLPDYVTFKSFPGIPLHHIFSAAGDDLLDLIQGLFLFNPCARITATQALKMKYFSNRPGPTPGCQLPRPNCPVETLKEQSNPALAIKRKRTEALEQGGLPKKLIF
As to the kind of experiment: Radiometric kinase assay (Eurofins Pharma Discovery or Reaction Biology Corporation Kinase Profiler). The class given is biochemical. The note with it: CDK7H; for remaining activity at 10 µM: compound at 10 μM, read-out: residual activity (%) at 10 μM CDK7H; for Ki: read-out: CDK inhibition, Ki (μM) CDK7H. In short, it runs like this:
as §1

Test [6] addresses T2, CDKs and other kinases (Homo sapiens, UniProt P06493).
T2 construct: other: CDK1B; residual activity (%) at 10 μM CDK1B; compound at 10 μM
The description is as above. The class given is biochemical. As to conditions: CDK1B; for remaining activity at 10 µM: compound at 10 μM, read-out: residual activity (%) at 10 μM CDK1B; for Ki: read-out: CDK inhibition, Ki (μM) CDK1B. The method in brief:
as §1

Test [7] deals with T3, CDKs and other kinases (Homo sapiens, UniProt P24941).
T3 construct: other: CDK2A; residual activity (%) at 10 μM CDK2A; compound at 10 μM
Described as above. Type of test: biochemical. The note with it: CDK2A; for remaining activity at 10 µM: compound at 10 μM, read-out: residual activity (%) at 10 μM CDK2A; for Ki: read-out: CDK inhibition, Ki (μM) CDK2A. In short, it runs like this:
as §1

CDK9/T1, sequence (P50750 whole entry): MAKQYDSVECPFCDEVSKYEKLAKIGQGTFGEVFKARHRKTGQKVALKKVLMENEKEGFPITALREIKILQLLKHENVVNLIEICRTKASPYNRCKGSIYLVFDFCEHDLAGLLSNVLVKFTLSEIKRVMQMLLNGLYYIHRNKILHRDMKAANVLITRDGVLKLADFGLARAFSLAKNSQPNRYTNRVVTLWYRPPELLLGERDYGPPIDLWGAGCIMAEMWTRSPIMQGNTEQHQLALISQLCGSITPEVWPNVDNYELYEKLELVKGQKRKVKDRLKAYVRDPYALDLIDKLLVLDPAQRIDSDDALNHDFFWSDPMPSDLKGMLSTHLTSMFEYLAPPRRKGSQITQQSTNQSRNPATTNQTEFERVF
CDK9/T1, sequence (O60563 whole entry partner): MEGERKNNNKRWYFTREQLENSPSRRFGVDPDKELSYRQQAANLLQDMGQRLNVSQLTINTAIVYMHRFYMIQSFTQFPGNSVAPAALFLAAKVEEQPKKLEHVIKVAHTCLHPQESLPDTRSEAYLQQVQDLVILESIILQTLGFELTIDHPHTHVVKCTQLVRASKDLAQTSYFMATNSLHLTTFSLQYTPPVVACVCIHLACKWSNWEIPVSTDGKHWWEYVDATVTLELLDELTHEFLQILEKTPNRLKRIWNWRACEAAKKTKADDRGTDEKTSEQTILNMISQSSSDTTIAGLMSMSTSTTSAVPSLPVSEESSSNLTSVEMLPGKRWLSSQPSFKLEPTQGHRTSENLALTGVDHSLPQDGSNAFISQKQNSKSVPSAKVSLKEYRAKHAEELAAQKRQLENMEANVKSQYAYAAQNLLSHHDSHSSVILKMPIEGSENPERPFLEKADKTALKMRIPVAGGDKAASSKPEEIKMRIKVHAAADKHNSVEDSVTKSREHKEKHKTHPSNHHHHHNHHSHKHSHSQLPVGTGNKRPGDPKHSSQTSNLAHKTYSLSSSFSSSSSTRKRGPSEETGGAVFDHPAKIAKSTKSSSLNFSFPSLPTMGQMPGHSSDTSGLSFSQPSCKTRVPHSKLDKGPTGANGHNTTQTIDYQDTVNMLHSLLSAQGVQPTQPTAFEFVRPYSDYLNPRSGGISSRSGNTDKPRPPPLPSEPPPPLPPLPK
CDK6/D3, sequence (Q00534 whole entry): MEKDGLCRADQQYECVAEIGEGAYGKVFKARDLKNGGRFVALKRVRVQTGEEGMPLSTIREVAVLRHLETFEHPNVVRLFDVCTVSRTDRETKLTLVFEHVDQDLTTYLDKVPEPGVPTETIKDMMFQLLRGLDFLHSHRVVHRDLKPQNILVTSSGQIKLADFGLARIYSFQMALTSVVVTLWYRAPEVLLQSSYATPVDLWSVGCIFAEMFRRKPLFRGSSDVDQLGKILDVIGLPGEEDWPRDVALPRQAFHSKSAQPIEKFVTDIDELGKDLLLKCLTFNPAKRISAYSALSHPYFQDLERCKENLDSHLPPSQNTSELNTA
CDK6/D3, sequence (P30281 whole entry partner): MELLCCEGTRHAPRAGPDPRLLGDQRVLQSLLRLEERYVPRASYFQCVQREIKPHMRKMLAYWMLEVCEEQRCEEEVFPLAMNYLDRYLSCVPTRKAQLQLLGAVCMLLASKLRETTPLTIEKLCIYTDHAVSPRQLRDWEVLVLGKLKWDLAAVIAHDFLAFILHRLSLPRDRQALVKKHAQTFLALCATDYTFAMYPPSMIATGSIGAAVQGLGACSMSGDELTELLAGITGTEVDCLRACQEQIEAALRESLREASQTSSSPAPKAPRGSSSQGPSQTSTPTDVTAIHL
T2 sequence (P06493 whole entry): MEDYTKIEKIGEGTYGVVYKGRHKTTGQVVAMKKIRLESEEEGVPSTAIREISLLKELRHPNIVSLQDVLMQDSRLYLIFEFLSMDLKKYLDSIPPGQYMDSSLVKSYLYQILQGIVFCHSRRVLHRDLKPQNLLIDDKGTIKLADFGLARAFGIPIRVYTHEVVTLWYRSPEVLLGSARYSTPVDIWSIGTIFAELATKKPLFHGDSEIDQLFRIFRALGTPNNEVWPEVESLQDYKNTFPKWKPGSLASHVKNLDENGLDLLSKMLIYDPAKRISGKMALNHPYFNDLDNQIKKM

Broadly, the Ki is a measure of affinity in units of concentration, obtained from inhibition or displacement. Usually GI50 stands for the concentration at which growth is held to half of that of the control. The low end stands for more potent growth inhibition, the high end for less potent growth inhibition. As to `Cc1cnc(N[C@H]2CC[C@H](N)CC2)nc1-c1cnc2ccc(Oc3cccnc3)cn12` [Compound 74, (1r,4r)-N^1-(5-Methyl-4-(6-(pyridin-3-yloxy)imidazo[1,2-a]pyridin-3-yl)pyrimidin-2-yl)cyclohexane-1,4-diamine], the remaining activity at 10 µM in test [1] turned out to be 41%; in test [4], 46%; in test [5], 50%; in test [6] it was 39%; in test [7], 11%. Also, in test [2], the Ki came out at 0.02 µM. Moreover, the GI50 in test [3] was found to be 0.349 ± 0.086 µM.

For `Cc1cnc(NC2CCOCC2)nc1-c1cnc2ccc(Nc3cccnc3)cn12` [Compound 103, 3-(5-Methyl-2-((tetrahydro-2H-pyran-4-yl)amino)pyrimidin-4-yl)-N-(pyridin-3-yl)imidazo[1,2-a]pyridin-6-amine], the remaining activity at 10 µM was determined as 30% in test [1]; 45% in test [4]; 40% in test [5]; 4% in test [6]; 1% in test [7]. The Ki in test [2] was found to be 0.203 µM. The GI50 in test [3] is > 10 µM.

With `N[C@H]1CC[C@H](Nc2ncc(Cl)c(-c3cnc4ccc(C(F)(F)F)cn34)n2)CC1` [Compound 13, (1r,4r)-N^1-(5-Chloro-4-(6-(trifluoromethyl)imidazo[1,2-a]pyridin-3-yl)pyrimidin-2-yl)cyclohexane-1,4-diamine], the figures for the remaining activity at 10 µM in test [1] and in test [4] were 0% and 59%, respectively. Further, the Ki in test [2] is 0.024 µM; in test [5], 0.052 µM; in test [6] it was 0.329 µM; in test [7] it was 0.063 µM. For the same compound, the GI50 in test [3] turned out to be 0.022 ± 0.002 µM.

`Cc1ccc(Nc2ccc3ncc(-c4nc(N[C@H]5CC[C@H](N)CC5)ncc4C)n3c2)cn1` [Compound 69, (1r,4r)-N^1-(5-Methyl-4-(6-((6-methylpyridin-3-yl)amino)imidazo[1,2-a]pyridin-3-yl)pyrimidin-2-yl)cyclohexane-1,4-diamine]: the figures for the remaining activity at 10 µM in test [1] and in test [4] were 24% and 25%, respectively. In addition, the Ki was determined as 0.023 µM in test [2], 0.95 µM in test [5], 2.95 µM in test [6] and 0.61 µM in test [7]. Besides, the 50% growth inhibitory concentration (GI50) in test [3] amounted to 0.199 ± 0.02 µM.

On to `Cc1cnc(N[C@H]2CC[C@H](N)CC2)nc1-c1cnc2ccc(-c3cccnc3)cn12` [Compound 29, (1r,4r)-N^1-(5-Methyl-4-(6-(pyridin-3-yl)imidazo[1,2-a]pyridin-3-yl)pyrimidin-2-yl)cyclohexane-1,4-diamine], for which the remaining activity at 10 µM amounted to 17% in test [1] and 45% in test [4]. Also, the Ki in test [2] came to 0.051 µM; in test [5], 2.73 µM; in test [6], 3.57 µM; in test [7], 1.83 µM. This compound came in with a GI50 in test [3] of 0.101 ± 0.039 µM.

For the compound `COc1ccc(-c2ccc3ncc(-c4nc(N[C@H]5CC[C@H](N)CC5)ncc4Cl)n3c2)cn1` [Compound 81, (1r,4r)-N^1-(5-Chloro-4-(6-(6-methoxypyridin-3-yl)imidazo[1,2-a]pyridin-3-yl)pyrimidin-2-yl)cyclohexane-1,4-diamine], the inhibitory constant (Ki) amounted to 1.58 µM in test [1] (read-out: CDK inhibition, Ki (μM) CDK4D1); 0.008 µM in test [2]; 1.01 µM in test [4] (read-out: CDK inhibition, Ki (μM) CDK6D3); 0.21 µM in test [5]; 2.01 µM in test [6]; 0.51 µM in test [7]. Halving of growth in test [3] (GI50) required 0.025 ± 0.011 µM.

On to `Cc1cnc(N[C@H]2CC[C@H](N)CC2)nc1-c1cnc2ccc(-c3ccoc3)cn12` [Compound 63, (1r,4r)-N^1-(4-(6-(Furan-3-yl)imidazo[1,2-a]pyridin-3-yl)-5-methylpyrimidin-2-yl)cyclohexane-1,4-diamine], for which the remaining activity at 10 µM in test [1] was 38%; in test [4] it was 29%; in test [5], 18%; in test [6] it was 18%; in test [7], 6%. Moreover, the Ki in test [2] came out at 0.054 µM. For the same compound, the GI50 in test [3] was 0.095 ± 0.031 µM.

As to `N[C@H]1CC[C@H](Nc2ncc(Cl)c(-c3cnc4ccc(Br)cn34)n2)CC1` [Compound 12, (1r,4r)-N^1-(4-(6-Bromoimidazo[1,2-a]pyridin-3-yl)-5-chloropyrimidin-2-yl)cyclohexane-1,4-diamine], the remaining activity at 10 µM in test [1] was found to be 4%; in test [4], 41%. In addition, the Ki in test [2] was determined as 0.008 µM; in test [5] it was 0.032 µM; in test [6] it was 0.121 µM; in test [7], 0.013 µM. Moreover, the GI50 in test [3] was determined as 0.006 ± 0.001 µM.

As to `Cc1cnc(N[C@H]2CC[C@H](N)CC2)nc1-c1cnc2ccc(C(F)(F)F)cn12` [Compound 9, (1r,4r)-N^1-(5-Methyl-4-(6-(trifluoromethyl)imidazo[1,2-a]pyridin-3-yl)pyrimidin-2-yl)cyclohexane-1,4-diamine], the remaining activity at 10 µM in test [1] is 45%; in test [4] it was 58%. Moreover, the Ki in test [2] was found to be 0.009 µM; in test [5], 0.23 µM; in test [6] it was 0.266 µM; in test [7], 0.08 µM. The same compound had a GI50 in test [3] of 0.008 ± 0.002 µM.

As to `Cc1cnc(N[C@]23C[C@@]4(C)C[C@](C)(C[C@](O)(C4)C2)C3)nc1-c1cnc2ccc(-c3ccccc3)cn12` [Compound 100, (1s,3R,5S,7r)-3,5-Dimethyl-7-((5-methyl-4-(6-phenylimidazo[1,2-a]pyridin-3-yl)pyrimidin-2-yl)amino)adamantan-1-ol], the remaining activity at 10 µM in test [1] amounted to 96%; in test [4] it was 84%; in test [5], 98%; in test [6], 87%; in test [7] it was 79%. Moreover, the Ki in test [2] is > 5 µM. Also, in test [3], the GI50 was > 10 µM.

With `COC(=O)CN1CCC(Nc2ncc(F)c(-c3cnc4ccccn34)n2)CC1` [Compound 23, Methyl 2-(4-((5-fluoro-4-(imidazo[1,2-a]pyridin-3-yl)pyrimidin-2-yl)amino)piperidin-1-yl)acetate], the values for the remaining activity at 10 µM in test [1] and in test [4] were 0% and 39%, respectively. In addition, the Ki turned out to be 0.063 µM in test [2], 0.885 µM in test [5], 0.258 µM in test [6] and 0.155 µM in test [7]. Further, growth in test [3] was halved (GI50) at 0.28 ± 0.049 µM.

Take `N[C@H]1CC[C@H](Nc2ncc(Cl)c(-c3cnc4ccc(-c5ncccc5F)cn34)n2)CC1` [Compound 40, (1r,4r)-N^1-(5-Chloro-4-(6-(3-fluoropyridin-2-yl)imidazo [1,2-a]pyridin-3-yl)pyrimidin-2-yl)cyclohexane-1,4-diamine]: the values for the remaining activity at 10 µM in test [1] and in test [4] were 30% and 72%, respectively. The Ki in test [2] was 0.014 µM; in test [5] it was 0.038 µM; in test [6], 0.88 µM; in test [7], 0.73 µM. For the same compound, growth in test [3] was halved (GI50) at 0.005 ± 0.001 µM.

For the compound `N[C@H]1CC[C@H](Nc2ncc(Cl)c(-c3cnc4ccc(NCc5ccc(F)cc5)cn34)n2)CC1` [Compound 41, (1r,4r)-N^1-(5-Chloro-4-(6-((4-fluorobenzyl)amino)imidazo[1,2-a]pyridin-3-yl)pyrimidin-2-yl)cyclohexane-1,4-diamine], the remaining activity at 10 µM in test [1] turned out to be 40%; in test [4], 55%. The Ki is 0.045 µM in test [2], 0.958 µM in test [5], 2.66 µM in test [6] and 0.059 µM in test [7]. In test [3], this compound had a GI50 of 0.013 ± 0.002 µM.

As for `Cc1cnc(N[C@H]2CC[C@H](N)CC2)nc1-c1cnc2cc(-c3cccnc3)ccn12` [Compound 54, (1r,4r)-N^1-(5-Methyl-4-(7-(pyridin-3-yl)imidazo[1,2-a]pyridin-3-yl)pyrimidin-2-yl)cyclohexane-1,4-diamine], the remaining activity at 10 µM in test [1] turned out to be 0%; in test [4] it was 0%; in test [5], 6%; in test [6], 29%; in test [7] it was 5%. Besides, the inhibitory constant (Ki) in test [2] was 0.11 µM. In test [3], this compound had a concentration for 50% growth inhibition (GI50) of 0.018 ± 0.004 µM.
